Format in all cases: biochemical
In assay [1] the target is HDAC4 (Homo sapiens, UniProt P56524). Nature of the assay: HDAC4 enzymatic assay. The note with it: Table 3 comparison results. As for the experimental part: (§1) All enzymatic reactions were conducted in duplicate at room temperature for 17 hours in a 50 μl mixture containing HDAC assay buffer (50 mM Tris-HCl, pH 7.4, 137 mM NaCl, 2.7 mM KCl, 0.05% Tween 20, 5 μg BSA), an HDAC substrate, an HDAC enzyme, and a test compound. Compound dilution was prepared ten-fold higher than the final concentration of the compounds with 10% DMSO in HDAC assay buffer and 5 al of the dilution was added to a 50 al reaction so that the final concentration of DMSO is 1% in all of reactions. After enzymatic reactions, 50 μl of HDAC Developer was added to each well and the plate was incubated at room temperature for an additional 20 minutes. Fluorescence intensity was measured at an excitation of 360 nm and an emission of 460 nm using a Tecan Infinite M1000 or Biotek Synergy microplate reader. The fluorescent intensity data were analyzed using the computer software, Graphpad Prism. In the absence of the compound, the fluorescent intensity (Ft) in each data set was defined as 100% activity. In the absence of HDAC, the fluorescent intensity (Fb) in each data set was defined as 0% activity. The percent activity in the presence of each compound was calculated according to the following equation: % activity=(F−Fb)/(Ft−Fb), where F=the fluorescent intensity in the presence of the compound. […]

For assay [2], the target named is HDAC3/NCOR2 (Homo sapiens, UniProt O15379). Nature of the assay: HDAC3 enzymatic assay. The protocol:
as §1

For assay [3], the target named is T1, HDAC6 (Homo sapiens, UniProt Q9UBN7).
T1 sequence (Q9UBN7 1-1215): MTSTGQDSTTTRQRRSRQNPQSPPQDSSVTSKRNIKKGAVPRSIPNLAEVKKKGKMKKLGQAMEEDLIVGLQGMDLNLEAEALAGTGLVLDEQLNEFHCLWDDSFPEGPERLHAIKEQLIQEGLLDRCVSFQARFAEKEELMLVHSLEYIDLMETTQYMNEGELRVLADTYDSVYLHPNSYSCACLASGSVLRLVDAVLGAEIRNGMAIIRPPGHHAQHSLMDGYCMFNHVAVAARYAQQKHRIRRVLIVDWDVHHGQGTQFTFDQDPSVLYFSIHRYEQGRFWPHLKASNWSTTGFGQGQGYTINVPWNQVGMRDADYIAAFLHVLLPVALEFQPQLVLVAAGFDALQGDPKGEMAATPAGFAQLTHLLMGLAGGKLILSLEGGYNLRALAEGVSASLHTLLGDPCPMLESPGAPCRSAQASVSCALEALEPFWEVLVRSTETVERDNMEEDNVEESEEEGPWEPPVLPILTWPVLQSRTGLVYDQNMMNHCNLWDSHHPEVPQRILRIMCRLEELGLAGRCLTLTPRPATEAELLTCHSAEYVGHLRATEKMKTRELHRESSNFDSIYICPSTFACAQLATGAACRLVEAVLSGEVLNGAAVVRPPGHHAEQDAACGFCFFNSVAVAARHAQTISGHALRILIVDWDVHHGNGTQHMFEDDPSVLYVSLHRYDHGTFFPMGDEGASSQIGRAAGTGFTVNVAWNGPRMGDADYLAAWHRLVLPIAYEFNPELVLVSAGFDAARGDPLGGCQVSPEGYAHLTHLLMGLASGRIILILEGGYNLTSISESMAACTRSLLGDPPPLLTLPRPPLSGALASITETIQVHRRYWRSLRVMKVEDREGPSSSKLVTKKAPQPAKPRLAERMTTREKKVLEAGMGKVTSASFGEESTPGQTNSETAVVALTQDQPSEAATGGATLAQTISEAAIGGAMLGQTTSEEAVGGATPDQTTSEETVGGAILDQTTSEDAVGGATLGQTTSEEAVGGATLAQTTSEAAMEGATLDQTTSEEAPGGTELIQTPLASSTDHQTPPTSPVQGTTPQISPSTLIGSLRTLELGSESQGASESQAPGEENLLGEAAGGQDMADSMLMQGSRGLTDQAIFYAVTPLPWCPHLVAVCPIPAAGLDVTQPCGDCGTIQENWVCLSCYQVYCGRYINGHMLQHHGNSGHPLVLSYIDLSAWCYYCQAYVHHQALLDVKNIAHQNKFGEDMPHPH
The assay is described as follows: HDAC6 enzymatic assay. Conditions: Table 3 comparison results. The protocol:
as §1

Assay [4] has as its target HDAC5 (Homo sapiens, UniProt Q9UQL6). The assay is described as follows: HDAC5 enzymatic assay. Conditions: Table 3 comparison results. The protocol:
as §1

The target of assay [5] is T2, HDAC8 (Homo sapiens, UniProt Q9BY41).
T2 sequence (Q9BY41 1-377): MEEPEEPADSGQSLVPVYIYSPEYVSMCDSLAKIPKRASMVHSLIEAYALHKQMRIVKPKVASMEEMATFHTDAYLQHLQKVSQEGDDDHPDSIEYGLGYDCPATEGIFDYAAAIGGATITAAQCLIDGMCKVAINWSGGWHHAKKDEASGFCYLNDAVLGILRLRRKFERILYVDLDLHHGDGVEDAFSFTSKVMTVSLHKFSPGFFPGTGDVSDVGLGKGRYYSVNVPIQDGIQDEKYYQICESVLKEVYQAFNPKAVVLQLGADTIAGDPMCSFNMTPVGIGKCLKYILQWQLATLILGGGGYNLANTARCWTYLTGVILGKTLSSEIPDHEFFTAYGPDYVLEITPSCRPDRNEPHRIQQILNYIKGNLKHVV
Nature of the assay: HDAC8 enzymatic assay. As for the experimental part:
as §1

In assay [6] the target is T3, HDAC7 (Homo sapiens, UniProt Q8WUI4).
T3 sequence (Q8WUI4 1-952): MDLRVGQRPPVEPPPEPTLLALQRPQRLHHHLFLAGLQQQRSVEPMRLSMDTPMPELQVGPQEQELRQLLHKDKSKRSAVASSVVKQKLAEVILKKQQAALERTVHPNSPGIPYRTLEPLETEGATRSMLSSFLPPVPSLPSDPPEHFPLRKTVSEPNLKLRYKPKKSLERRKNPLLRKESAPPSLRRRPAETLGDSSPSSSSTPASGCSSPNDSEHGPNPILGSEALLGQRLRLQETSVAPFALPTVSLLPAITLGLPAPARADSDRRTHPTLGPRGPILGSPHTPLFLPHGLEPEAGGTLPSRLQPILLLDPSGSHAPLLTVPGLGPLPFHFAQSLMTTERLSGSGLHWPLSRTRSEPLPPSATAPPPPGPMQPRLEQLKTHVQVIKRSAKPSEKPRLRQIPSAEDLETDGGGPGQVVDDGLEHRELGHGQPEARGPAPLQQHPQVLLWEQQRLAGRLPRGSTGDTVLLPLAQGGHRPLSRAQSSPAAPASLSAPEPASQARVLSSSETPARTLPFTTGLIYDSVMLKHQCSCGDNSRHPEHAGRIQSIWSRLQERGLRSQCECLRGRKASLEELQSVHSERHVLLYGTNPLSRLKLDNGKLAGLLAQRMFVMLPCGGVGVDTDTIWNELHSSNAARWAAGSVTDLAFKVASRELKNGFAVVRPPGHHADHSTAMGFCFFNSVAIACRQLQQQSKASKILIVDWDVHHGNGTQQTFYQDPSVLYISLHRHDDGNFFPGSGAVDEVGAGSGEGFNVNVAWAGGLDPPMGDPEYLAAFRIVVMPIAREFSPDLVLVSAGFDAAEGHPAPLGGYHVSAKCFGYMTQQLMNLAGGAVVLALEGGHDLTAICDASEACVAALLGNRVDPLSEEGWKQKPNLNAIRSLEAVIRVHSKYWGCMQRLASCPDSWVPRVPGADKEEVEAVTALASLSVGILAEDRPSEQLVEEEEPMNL
The assay is described as follows: HDAC7 enzymatic assay. Conditions: Table 3 comparison results. As for the experimental part:
as §1

For assay [7], the target named is T4, HDAC11 (Homo sapiens, UniProt Q96DB2).
T4 sequence (Q96DB2 1-347): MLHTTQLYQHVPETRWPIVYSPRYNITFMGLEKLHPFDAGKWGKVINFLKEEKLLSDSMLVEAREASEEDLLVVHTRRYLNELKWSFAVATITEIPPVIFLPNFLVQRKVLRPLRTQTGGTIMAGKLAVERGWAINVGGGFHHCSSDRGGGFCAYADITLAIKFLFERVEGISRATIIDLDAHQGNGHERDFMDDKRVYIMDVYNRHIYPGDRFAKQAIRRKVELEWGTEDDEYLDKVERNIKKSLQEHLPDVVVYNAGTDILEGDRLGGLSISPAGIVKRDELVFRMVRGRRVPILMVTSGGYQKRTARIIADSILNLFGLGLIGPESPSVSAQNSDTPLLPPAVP
Nature of the assay: HDAC11 enzymatic assay. The note with it: Table 3 comparison results. As for the experimental part:
as §1

For assay [8], the target named is HDAC9 (Homo sapiens, UniProt Q9UKV0). Nature of the assay: HDAC9 enzymatic assay. Conditions: Table 3 comparison results. As for the experimental part: as §1
Assay [9] addresses T5, HDAC10 (Homo sapiens, UniProt Q969S8).
T5 sequence (Q969S8 1-669): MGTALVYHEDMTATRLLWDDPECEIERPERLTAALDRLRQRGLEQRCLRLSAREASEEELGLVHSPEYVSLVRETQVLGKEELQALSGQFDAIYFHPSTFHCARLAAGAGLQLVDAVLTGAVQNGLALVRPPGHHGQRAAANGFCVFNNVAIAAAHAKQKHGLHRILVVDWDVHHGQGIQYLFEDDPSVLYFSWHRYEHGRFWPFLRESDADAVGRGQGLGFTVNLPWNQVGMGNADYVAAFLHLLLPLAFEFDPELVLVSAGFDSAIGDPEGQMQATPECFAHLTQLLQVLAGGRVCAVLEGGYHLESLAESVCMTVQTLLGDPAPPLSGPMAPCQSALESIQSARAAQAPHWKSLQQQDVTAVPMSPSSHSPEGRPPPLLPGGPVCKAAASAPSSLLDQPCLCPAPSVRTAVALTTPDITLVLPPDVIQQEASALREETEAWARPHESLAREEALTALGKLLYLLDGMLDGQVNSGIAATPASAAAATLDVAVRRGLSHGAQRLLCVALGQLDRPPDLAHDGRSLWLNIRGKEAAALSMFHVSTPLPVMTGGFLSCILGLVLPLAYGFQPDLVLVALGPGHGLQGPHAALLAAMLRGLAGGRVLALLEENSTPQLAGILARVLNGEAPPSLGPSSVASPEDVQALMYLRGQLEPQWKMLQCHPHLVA
The assay is described as follows: HDAC10 enzymatic assay. The note with it: Table 3 comparison results. The protocol: as §1

Assay [10] addresses HDAC2 (Homo sapiens, UniProt Q92769). The assay is described as follows: HDAC2 enzymatic assay. As for the experimental part:
as §1

For assay [11], the target named is HDAC1 (Homo sapiens, UniProt Q13547). Nature of the assay: HDAC1 enzymatic assay. As for the experimental part:
as §1

Consider 2 molecules from patent US20200171028A1, “METALLOENZYME INHIBITOR COMPOUNDS” (Viiamet Pharmaceuticals Holdings, LLC, priority 2017, published 2020).

The structures appear in SMILES notation.

HDAC1, sequence (Q13547 whole entry): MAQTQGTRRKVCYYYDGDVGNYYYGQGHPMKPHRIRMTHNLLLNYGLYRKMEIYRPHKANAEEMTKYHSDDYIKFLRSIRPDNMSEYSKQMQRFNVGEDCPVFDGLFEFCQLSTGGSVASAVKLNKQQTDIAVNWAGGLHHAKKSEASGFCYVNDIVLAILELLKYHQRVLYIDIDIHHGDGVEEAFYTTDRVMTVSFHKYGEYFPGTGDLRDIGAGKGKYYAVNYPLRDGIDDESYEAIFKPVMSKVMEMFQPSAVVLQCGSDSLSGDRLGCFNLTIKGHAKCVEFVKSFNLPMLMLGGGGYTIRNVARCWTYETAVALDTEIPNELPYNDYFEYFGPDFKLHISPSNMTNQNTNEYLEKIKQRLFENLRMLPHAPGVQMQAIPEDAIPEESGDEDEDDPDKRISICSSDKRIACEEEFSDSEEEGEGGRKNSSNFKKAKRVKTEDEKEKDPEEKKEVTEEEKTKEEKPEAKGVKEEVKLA
HDAC2, sequence (Q92769 whole entry): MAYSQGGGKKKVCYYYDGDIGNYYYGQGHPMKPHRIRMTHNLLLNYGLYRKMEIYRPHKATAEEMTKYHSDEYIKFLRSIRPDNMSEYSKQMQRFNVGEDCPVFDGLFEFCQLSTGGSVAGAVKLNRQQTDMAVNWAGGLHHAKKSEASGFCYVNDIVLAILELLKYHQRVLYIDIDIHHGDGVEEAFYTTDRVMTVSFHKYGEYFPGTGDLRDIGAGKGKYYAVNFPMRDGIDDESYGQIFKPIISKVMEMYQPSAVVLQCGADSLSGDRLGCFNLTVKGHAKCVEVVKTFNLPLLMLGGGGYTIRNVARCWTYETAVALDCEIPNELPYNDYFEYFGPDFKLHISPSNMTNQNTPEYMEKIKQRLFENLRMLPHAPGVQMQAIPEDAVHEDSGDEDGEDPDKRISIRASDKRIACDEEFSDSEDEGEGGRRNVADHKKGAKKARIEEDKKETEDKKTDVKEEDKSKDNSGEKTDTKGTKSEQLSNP
HDAC4, sequence (P56524 whole entry): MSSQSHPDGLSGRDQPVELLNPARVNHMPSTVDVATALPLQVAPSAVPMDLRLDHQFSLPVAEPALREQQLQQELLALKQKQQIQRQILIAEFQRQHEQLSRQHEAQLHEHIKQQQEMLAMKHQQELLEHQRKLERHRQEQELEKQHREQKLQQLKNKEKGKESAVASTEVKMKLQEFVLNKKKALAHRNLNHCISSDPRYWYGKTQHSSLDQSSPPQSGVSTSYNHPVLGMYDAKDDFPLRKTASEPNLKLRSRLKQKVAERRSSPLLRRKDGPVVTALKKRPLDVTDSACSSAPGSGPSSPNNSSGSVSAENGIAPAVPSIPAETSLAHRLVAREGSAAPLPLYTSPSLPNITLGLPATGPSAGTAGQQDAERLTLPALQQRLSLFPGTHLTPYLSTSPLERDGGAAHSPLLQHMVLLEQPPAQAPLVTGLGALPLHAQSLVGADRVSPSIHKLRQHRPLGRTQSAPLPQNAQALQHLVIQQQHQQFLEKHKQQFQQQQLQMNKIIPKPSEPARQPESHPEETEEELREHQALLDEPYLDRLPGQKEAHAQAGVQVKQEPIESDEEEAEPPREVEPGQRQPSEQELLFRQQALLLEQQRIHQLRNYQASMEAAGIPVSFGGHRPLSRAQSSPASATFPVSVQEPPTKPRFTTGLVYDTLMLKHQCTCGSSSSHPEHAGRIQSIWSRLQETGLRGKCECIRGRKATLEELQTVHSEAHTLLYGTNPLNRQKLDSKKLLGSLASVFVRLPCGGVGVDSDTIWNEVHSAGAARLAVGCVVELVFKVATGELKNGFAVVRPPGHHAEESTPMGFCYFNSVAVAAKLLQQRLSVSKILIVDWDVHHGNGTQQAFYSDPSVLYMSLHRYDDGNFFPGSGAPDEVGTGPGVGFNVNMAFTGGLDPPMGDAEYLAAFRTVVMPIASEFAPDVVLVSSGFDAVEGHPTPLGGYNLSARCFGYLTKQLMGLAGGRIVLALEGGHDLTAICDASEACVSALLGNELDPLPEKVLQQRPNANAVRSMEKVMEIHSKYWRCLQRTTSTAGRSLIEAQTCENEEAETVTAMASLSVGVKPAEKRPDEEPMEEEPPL
HDAC5, sequence (Q9UQL6 whole entry): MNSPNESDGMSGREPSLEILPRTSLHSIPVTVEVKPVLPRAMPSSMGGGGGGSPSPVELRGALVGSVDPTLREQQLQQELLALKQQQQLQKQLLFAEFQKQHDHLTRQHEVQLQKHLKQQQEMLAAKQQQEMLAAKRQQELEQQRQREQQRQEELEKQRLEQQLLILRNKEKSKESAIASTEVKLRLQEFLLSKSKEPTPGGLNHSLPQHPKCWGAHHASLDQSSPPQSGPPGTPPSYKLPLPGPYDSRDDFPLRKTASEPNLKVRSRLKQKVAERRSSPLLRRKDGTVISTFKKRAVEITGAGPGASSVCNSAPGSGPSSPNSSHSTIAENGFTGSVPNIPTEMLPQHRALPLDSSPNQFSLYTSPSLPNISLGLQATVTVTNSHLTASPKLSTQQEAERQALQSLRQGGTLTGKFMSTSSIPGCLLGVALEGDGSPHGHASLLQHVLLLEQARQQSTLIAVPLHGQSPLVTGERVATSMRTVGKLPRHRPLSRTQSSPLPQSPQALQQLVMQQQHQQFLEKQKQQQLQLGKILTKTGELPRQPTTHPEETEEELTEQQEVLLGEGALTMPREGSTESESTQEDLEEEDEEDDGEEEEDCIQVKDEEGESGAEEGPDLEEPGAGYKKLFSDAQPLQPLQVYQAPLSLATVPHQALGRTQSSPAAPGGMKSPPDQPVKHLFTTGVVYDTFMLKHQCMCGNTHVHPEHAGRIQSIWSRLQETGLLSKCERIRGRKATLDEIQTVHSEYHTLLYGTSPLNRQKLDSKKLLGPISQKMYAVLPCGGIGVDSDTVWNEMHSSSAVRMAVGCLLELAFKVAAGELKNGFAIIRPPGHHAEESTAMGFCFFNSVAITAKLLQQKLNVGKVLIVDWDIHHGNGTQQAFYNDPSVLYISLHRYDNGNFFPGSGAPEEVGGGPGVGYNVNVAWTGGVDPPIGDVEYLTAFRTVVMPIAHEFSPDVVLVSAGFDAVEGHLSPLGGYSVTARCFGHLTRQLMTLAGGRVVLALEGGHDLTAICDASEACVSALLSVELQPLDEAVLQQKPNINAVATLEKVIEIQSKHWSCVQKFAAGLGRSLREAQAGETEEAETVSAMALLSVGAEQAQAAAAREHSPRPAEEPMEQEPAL
HDAC3/NCOR2, sequence (Q9Y618 395-489): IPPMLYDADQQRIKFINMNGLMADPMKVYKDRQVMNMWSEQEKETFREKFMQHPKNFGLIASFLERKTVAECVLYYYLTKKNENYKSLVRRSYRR
HDAC3/NCOR2, sequence (O15379 whole entry): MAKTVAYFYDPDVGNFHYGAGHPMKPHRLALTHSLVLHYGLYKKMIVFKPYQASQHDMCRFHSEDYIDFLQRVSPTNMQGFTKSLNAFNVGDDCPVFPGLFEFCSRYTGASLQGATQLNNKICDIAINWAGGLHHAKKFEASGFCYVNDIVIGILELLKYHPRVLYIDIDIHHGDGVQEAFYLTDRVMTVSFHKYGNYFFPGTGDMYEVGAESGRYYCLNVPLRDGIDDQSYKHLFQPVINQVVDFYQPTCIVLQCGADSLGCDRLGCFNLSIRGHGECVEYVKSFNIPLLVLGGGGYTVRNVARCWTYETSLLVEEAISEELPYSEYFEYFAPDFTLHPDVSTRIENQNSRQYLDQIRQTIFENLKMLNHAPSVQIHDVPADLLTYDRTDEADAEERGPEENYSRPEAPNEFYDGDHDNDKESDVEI
HDAC9, sequence (Q9UKV0 whole entry): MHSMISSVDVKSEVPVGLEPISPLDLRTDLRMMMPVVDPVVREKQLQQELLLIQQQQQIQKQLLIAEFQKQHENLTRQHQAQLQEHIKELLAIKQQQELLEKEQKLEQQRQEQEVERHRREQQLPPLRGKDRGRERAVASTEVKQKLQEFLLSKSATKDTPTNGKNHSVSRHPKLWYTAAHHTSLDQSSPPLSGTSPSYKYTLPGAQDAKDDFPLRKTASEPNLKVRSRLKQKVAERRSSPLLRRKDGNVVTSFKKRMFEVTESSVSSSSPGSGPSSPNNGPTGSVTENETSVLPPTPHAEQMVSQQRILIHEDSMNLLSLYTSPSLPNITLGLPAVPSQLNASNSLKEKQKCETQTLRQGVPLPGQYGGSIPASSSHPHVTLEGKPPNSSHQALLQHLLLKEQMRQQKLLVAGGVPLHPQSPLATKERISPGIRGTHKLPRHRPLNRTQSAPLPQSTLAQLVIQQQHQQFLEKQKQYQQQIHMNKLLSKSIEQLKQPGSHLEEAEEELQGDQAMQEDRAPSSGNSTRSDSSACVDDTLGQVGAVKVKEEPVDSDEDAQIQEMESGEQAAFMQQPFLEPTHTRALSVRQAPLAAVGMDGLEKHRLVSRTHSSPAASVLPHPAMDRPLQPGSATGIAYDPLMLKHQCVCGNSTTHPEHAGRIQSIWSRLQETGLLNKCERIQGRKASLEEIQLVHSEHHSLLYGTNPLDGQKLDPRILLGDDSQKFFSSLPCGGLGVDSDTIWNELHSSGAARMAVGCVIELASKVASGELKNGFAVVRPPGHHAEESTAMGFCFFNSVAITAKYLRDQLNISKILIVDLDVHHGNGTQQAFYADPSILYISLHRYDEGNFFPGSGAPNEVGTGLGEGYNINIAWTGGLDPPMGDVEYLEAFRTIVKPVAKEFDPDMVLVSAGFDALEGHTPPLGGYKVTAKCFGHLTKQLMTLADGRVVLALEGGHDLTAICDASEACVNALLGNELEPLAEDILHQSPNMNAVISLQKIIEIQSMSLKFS

For `FC(F)(F)c1nc(-c2cnc(NC3(c4ccccc4)CC3)nc2)no1`, the IC50 is 13 nM in [1]; 4100 nM in assay [2]; 150 nM in assay [3]; 250 nM in assay [4]; greater than 30000 nM in [5]; 20 nM in [6]. For the same molecule, the IC50 is greater than 30000 nM in [7], 77 nM in [8], 6400 nM in assay [9] and 13000 nM in assay [10].
Turning to `FC(F)c1nc(-c2cnc(NC3(c4ccccc4)CC3)nc2)no1`, the IC50 in assay [11] is greater than 30000 nM; in assay [3] it was 2900 nM.
